Results from paper PMC3898733 (ACS nano, 2013).

System: Factor VII
Experiment: In vivo Factor VII silencing
Conditions: for knock down of coagulation Factor VII: as stated in the abstract, dose not printed there; for activity in decreasing Factor VII expression: nanoparticles decorated with scrambled peptide, three days post injection

Substance	knock down of coagulation Factor VII	reduction of Factor VII expression (peptide decorated nanoparticles with Factor VII siRNA, tail vein, 5 mg/kg siRNA, blood three days post-injection, n=5)	activity in decreasing Factor VII expression (5 mg/kg siRNA)
CWLCRALIKRIQAMIP [compound 5]	90%	50%	
KRCRGWRQKMCLW			did not exhibit any activity
LRGYEGHRCGILALLDLACTKHANCLPCTQPS			did not exhibit any activity
MLRIAIRAWLCIPQCK			did not exhibit any activity
lactoferricin	90%		
